Values after ≈ are worked out from the molar mass of the structure shown. One block for each compound: values may come before it. Active and inactive are the calls of the source. No cut-off for these calls is given here.
Assays:
A549 = experiment: Cytotoxicity against human A549 cells; format: functional, cell-based
[1] = Inhibition of bovine brain calcineurin phosphatase activity; design: species or system Bos taurus
P388 = experiment: Cytotoxicity against mouse P388 cells; format: functional, cell-based
Bos taurus = species: Bos taurus; experiment: Inhibition of bovine brain calcineurin phosphatase activity at 5 ug/mL
Caspase-3 (Homo sapiens) [2] = biological target: T1, Caspase-3 (Homo sapiens) (UniProt P42574); experiment: Inhibition of CPP32 peptidase activity at 5 ug/mL
T1 sequence (whole entry): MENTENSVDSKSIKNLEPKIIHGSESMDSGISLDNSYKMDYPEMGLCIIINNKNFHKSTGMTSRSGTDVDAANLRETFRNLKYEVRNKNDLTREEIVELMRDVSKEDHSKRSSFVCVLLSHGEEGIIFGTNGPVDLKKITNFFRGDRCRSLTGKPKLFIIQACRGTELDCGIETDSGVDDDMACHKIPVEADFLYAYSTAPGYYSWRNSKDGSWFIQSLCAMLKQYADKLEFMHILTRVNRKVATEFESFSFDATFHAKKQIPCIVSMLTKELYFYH

Caspase-3 (Homo sapiens) [3] = biological target: T1, Caspase-3 (Homo sapiens); experiment: Inhibition of CPP32 peptidase activity at 50 nM

Compound: Cn1cc2c3c1C(=O)C1=C(C3=NCC2)C2(C=C(Br)C(=O)C(Br)=C2)CCN1 [DISCORHABDIN]
IC50 (A549): 0.41 µg/mL (≈ 0.859 µM)
IC50 [1]: 0.55 µg/mL (≈ 1.15 µM)
IC50 (P388): 0.025 µg/mL (≈ 0.0524 µM)

Activity (Bos taurus): inactive
Activity (Caspase-3 (Homo sapiens) [2]): inactive
Compound: O=C1C(Br)=CC2(C=C1Br)CCNC1=C2C2=NCCc3c[nH]c(c32)C1=O

inhibition (Caspase-3 (Homo sapiens) [3]): 90%
Compound: CC(C)[C@H](NC(=O)[C@H](CCC(=O)O)NC(=O)[C@@H](N)CC(=O)O)C(=O)N[C@H](C=O)CC(=O)O

Source: ChEMBL document CHEMBL1158003, “Discorhabdin P, a new enzyme inhibitor from a deep-water Caribbean sponge of the genus Batzella” (J Nat Prod, 1999)
